Reference: ChEMBL document CHEMBL4414672, “Synthesis of certain benzothieno[3,2-d]pyrimidine derivatives as a selective SIRT2 inhibitors” (Eur J Med Chem, 2020)

Legend:
Assay type in all cases: functional
NCI-H460 = assay: Growth inhibition of human NCI-H460 cells at 10^-5 M incubated for 48 hrs by sulforhodamine B assay; conditions: NCI-H460, 48 h, read-out: GI
PC-3 = assay: Growth inhibition of human PC3 cells at 10^-5 M incubated for 48 hrs by sulforhodamine B assay; conditions: PC-3, 48 h, read-out: GI
OVCAR-4 = assay: Growth inhibition of human OVCAR4 cells at 10^-5 M incubated for 48 hrs by sulforhodamine B assay; conditions: OVCAR-4, 48 h, read-out: GI
HT-29 = assay: Growth inhibition of human HT-29 cells at 10^-5 M incubated for 48 hrs by sulforhodamine B assay; conditions: HT-29, 48 h, read-out: GI
K562 = assay: Growth inhibition of human K562 cells at 10^-5 M incubated for 48 hrs by sulforhodamine B assay; conditions: K562, 48 h, read-out: GI
SK-MEL-28 = assay: Growth inhibition of human SK-MEL-28 cells at 10^-5 M incubated for 48 hrs by sulforhodamine B assay; conditions: SK-MEL-28, 48 h, read-out: GI
TK-10 = assay: Growth inhibition of human TK10 cells at 10^-5 M incubated for 48 hrs by sulforhodamine B assay; conditions: TK-10, 48 h, read-out: GI
NCI-H23 = assay: Growth inhibition of human NCI-H23 cells at 10^-5 M incubated for 48 hrs by sulforhodamine B assay; conditions: NCI-H23, 48 h, read-out: GI
HL-60(TB) = assay: Growth inhibition of human HL-60(TB) cells at 10^-5 M incubated for 48 hrs by sulforhodamine B assay; conditions: HL-60, 48 h, read-out: GI
IGROV-1 = assay: Growth inhibition of human IGROV1 cells at 10^-5 M incubated for 48 hrs by sulforhodamine B assay; conditions: IGROV-1, 48 h, read-out: GI
SF-268 = assay: Growth inhibition of human SF268 cells at 10^-5 M incubated for 48 hrs by sulforhodamine B assay; conditions: SF-268, 48 h, read-out: GI
EKVX = assay: Growth inhibition of human EKVX cells at 10^-5 M incubated for 48 hrs by sulforhodamine B assay; conditions: read-out: GI
SNB-19 = assay: Growth inhibition of human SNB19 cells at 10^-5 M incubated for 48 hrs by sulforhodamine B assay; conditions: SNB-19, 48 h, read-out: GI
MDA-MB-435 = assay: Growth inhibition of human MDA-MB-435 cells at 10^-5 M incubated for 48 hrs by sulforhodamine B assay; conditions: MDA-MB-435, 48 h, read-out: GI
HCT-116 = assay: Growth inhibition of human HCT116 cells at 10^-5 M incubated for 48 hrs by sulforhodamine B assay; conditions: HCT-116, 48 h, read-out: GI
M14 = assay: Growth inhibition of human M14 cells at 10^-5 M incubated for 48 hrs by sulforhodamine B assay; conditions: M14, 48 h, read-out: GI
SK-MEL-2 = assay: Growth inhibition of human SK-MEL-2 cells at 10^-5 M incubated for 48 hrs by sulforhodamine B assay; conditions: SK-MEL-2, 48 h, read-out: GI
Hs-578T = assay: Growth inhibition of human Hs 578T cells at 10^-5 M incubated for 48 hrs by sulforhodamine B assay; conditions: read-out: GI
SF-539 = assay: Growth inhibition of human SF539 cells at 10^-5 M incubated for 48 hrs by sulforhodamine B assay; conditions: SF-539, 48 h, read-out: GI
HOP-92 = assay: Growth inhibition of human HOP92 cells at 10^-5 M incubated for 48 hrs by sulforhodamine B assay; conditions: HOP-92, 48 h, read-out: GI
DU-145 = assay: Growth inhibition of human DU145 cells at 10^-5 M incubated for 48 hrs by sulforhodamine B assay; conditions: DU-145, 48 h, read-out: GI
UO-31 = assay: Growth inhibition of human UO31 cells at 10^-5 M incubated for 48 hrs by sulforhodamine B assay; conditions: UO-31, 48 h, read-out: GI
786-0 = assay: Growth inhibition of human 786-0 cells at 10^-5 M incubated for 48 hrs by sulforhodamine B assay; conditions: 786-0, 48 h, read-out: GI
MCF7 = assay: Growth inhibition of human MCF7 cells at 10^-5 M incubated for 48 hrs by sulforhodamine B assay; conditions: MCF7, 48 h, read-out: GI
OVCAR-8 = assay: Growth inhibition of human OVCAR8 cells at 10^-5 M incubated for 48 hrs by sulforhodamine B assay; conditions: OVCAR-8, 48 h, read-out: GI
SF-295 = assay: Growth inhibition of human SF295 cells at 10^-5 M incubated for 48 hrs by sulforhodamine B assay; conditions: SF-295, 48 h, read-out: GI
ACHN = assay: Growth inhibition of human ACHN cells at 10^-5 M incubated for 48 hrs by sulforhodamine B assay; conditions: read-out: GI
HOP-62 = assay: Growth inhibition of human HOP62 cells at 10^-5 M incubated for 48 hrs by sulforhodamine B assay; conditions: HOP-62, 48 h, read-out: GI
Malme-3M = assay: Growth inhibition of human MALME-3M cells at 10^-5 M incubated for 48 hrs by sulforhodamine B assay; conditions: read-out: GI
OVCAR-5 = assay: Growth inhibition of human OVCAR5 cells at 10^-5 M incubated for 48 hrs by sulforhodamine B assay; conditions: OVCAR-5, 48 h, read-out: GI
NCI-H522 = assay: Growth inhibition of human NCI-H522 cells at 10^-5 M incubated for 48 hrs by sulforhodamine B assay; conditions: NCI-H522, 48 h, read-out: GI
SN12C = assay: Growth inhibition of human SN12C cells at 10^-5 M incubated for 48 hrs by sulforhodamine B assay; conditions: read-out: GI
A498 = assay: Growth inhibition of human A498 cells at 10^-5 M incubated for 48 hrs by sulforhodamine B assay; conditions: A498, 48 h, read-out: GI
KM12 = assay: Growth inhibition of human KM12 cells at 10^-5 M incubated for 48 hrs by sulforhodamine B assay; conditions: KM12, 48 h, read-out: GI
LOX IMVI = assay: Growth inhibition of human LOXIMVI cells at 10^-5 M incubated for 48 hrs by sulforhodamine B assay; conditions: read-out: GI
UACC-257 = assay: Growth inhibition of human UACC257 cells at 10^-5 M incubated for 48 hrs by sulforhodamine B assay; conditions: UACC-257, 48 h, read-out: GI
UACC-62 = assay: Growth inhibition of human UACC62 cells at 10^-5 M incubated for 48 hrs by sulforhodamine B assay; conditions: UACC-62, 48 h, read-out: GI
CCRF-CEM = assay: Growth inhibition of human CCRF-CEM cells at 10^-5 M incubated for 48 hrs by sulforhodamine B assay; conditions: read-out: GI
SK-OV-3 = assay: Growth inhibition of human SKOV3 cells at 10^-5 M incubated for 48 hrs by sulforhodamine B assay; conditions: SK-OV-3, 48 h, read-out: GI

Structure (SMILES) | inhibition of growth at 10 µM (NCI-H460) [%] | inhibition of growth at 10 µM (PC-3) [%] | inhibition of growth at 10 µM (OVCAR-4) [%] | inhibition of growth at 10 µM (HT-29) [%] | inhibition of growth at 10 µM (K562) [%] | inhibition of growth at 10 µM (SK-MEL-28) [%] | inhibition of growth at 10 µM (TK-10) [%] | inhibition of growth at 10 µM (NCI-H23) [%] | inhibition of growth at 10 µM (HL-60(TB)) [%] | inhibition of growth at 10 µM (IGROV-1) [%] | inhibition of growth at 10 µM (SF-268) [%] | inhibition of growth at 10 µM (EKVX) [%] | inhibition of growth at 10 µM (SNB-19) [%] | inhibition of growth at 10 µM (MDA-MB-435) [%] | inhibition of growth at 10 µM (HCT-116) [%] | inhibition of growth at 10 µM (M14) [%] | inhibition of growth at 10 µM (SK-MEL-2) [%] | inhibition of growth at 10 µM (Hs-578T) [%] | inhibition of growth at 10 µM (SF-539) [%] | inhibition of growth at 10 µM (HOP-92) [%] | other results
Oc1ccccc1C1NC(=S)Nc2c1sc1ccc(Cl)cc21 (stereo not drawn) | 1.28 | 10.2 | 7.52 | -1.54 | 8.3 | -6.12 | -8.34 | 19.4 | -4.7 | 13.6 | 8.44 | 19.7 | 2.48 | -10.2 | 8.97 | 7.43 | 7.35 | 8.15 | -0.95 | 13.4 | inhibition of growth at 10 µM (DU-145): -7.9%; inhibition of growth at 10 µM (UO-31): -8.34%; inhibition of growth at 10 µM (786-0): 6.17%; inhibition of growth at 10 µM (MCF7): -7.9%; inhibition of growth at 10 µM (OVCAR-8): 5.15%; inhibition of growth at 10 µM (SF-295): -0.95%; inhibition of growth at 10 µM (ACHN): 8.93%; inhibition of growth at 10 µM (HOP-62): 5.51%; inhibition of growth at 10 µM (Malme-3M): 10.7%; inhibition of growth at 10 µM (OVCAR-5): 5.8%; inhibition of growth at 10 µM (NCI-H522): 7.8%; inhibition of growth at 10 µM (SN12C): 9.77%; inhibition of growth at 10 µM (A498): 23.4%; inhibition of growth at 10 µM (KM12): 1.3%; inhibition of growth at 10 µM (LOX IMVI): 6.44%; inhibition of growth at 10 µM (UACC-257): -1.4%; inhibition of growth at 10 µM (UACC-62): 13.1%; inhibition of growth at 10 µM (CCRF-CEM): -4.86%; inhibition of growth at 10 µM (SK-OV-3): 8.48%
O=[N+]([O-])c1cccc(C2c3sc4ccc(Cl)cc4c3N=C3NN=C(c4cccc(F)c4)N32)c1 (stereo not drawn) | 13.4 | 7.25 | 0.57 | -7.53 | 6.99 | -15.4 | -12.9 | 10.1 | 2.97 | 21.3 | 2.25 | 14.8 | -0.64 | -11.2 | 2.49 | -2.52 | -11.2 | 1.64 | 4.75 | -18 | inhibition of growth at 10 µM (DU-145): 11.3%; inhibition of growth at 10 µM (UO-31): 41.4%; inhibition of growth at 10 µM (786-0): -1.01%; inhibition of growth at 10 µM (MCF7): 24.4%; inhibition of growth at 10 µM (OVCAR-8): -1.43%; inhibition of growth at 10 µM (SF-295): 2.31%; inhibition of growth at 10 µM (ACHN): 11.4%; inhibition of growth at 10 µM (HOP-62): 14.2%; inhibition of growth at 10 µM (Malme-3M): -3.66%; inhibition of growth at 10 µM (OVCAR-5): -2.63%; inhibition of growth at 10 µM (NCI-H522): 7.14%; inhibition of growth at 10 µM (SN12C): 3.42%; inhibition of growth at 10 µM (A498): 0.64%; inhibition of growth at 10 µM (KM12): 2.47%; inhibition of growth at 10 µM (LOX IMVI): 0.5%; inhibition of growth at 10 µM (UACC-257): -6.09%; inhibition of growth at 10 µM (UACC-62): 4.06%; inhibition of growth at 10 µM (CCRF-CEM): -19.6%; inhibition of growth at 10 µM (SK-OV-3): 6.58%
